Assay results published in PMC4714869 (Steroids, 2015).
“Also recorded” adds a separate entry of the source.

Legend:
[1] = system: PgR and GREB1 gene expression in MCF-7 cells; assay: Estrogen-responsive gene expression; assay type: cell-based; conditions: for PgR and GREB1 RNA level (gene stimulation): MCF-7, 10^−8 M E2, 10^−6 M Liq or Iso-Liq, 3×10^−6 M L1–L7, 24 h
[2] = system: proteinase inhibitor 9 (PI9) expression in HepG2 + ERα cells; assay: PI9 gene expression in HepG2 cells stably expressing ERα; conditions: 10^−8 M EE2; 3×10^−6 M Liq, Iso-Liq, L1–L7; 24 h
[3] = system: Ki67 gene expression in MCF-7 cells; assay: Ki67 gene expression in MCF-7 cells by qPCR; conditions: for suppression of E2-elicited increase in Ki67 mRNA: 3×10^−6 M component with 10^−9 M E2, 24 h; for Ki67 RNA expression (stimulation): 10^−8 M E2, 10^−6 M Liq or Iso-Liq, 3×10^−6 M L1–L7, 24 h
MCF-7 cells = assay: Proliferation of MCF-7 cells; assay type: cell-based; conditions: 6 days; two highest concentrations 10^−6 and 3×10^−6 M
human ERα = target: T1, human ERα (Homo sapiens, UniProt P03372); assay: Competitive radiometric binding assay with [3H]-estradiol tracer, ERα; conditions: RBA of estradiol set to 100%; 2 nM [3H]-estradiol, 18–24 h at 0 °C
T1 sequence (P03372 1-595): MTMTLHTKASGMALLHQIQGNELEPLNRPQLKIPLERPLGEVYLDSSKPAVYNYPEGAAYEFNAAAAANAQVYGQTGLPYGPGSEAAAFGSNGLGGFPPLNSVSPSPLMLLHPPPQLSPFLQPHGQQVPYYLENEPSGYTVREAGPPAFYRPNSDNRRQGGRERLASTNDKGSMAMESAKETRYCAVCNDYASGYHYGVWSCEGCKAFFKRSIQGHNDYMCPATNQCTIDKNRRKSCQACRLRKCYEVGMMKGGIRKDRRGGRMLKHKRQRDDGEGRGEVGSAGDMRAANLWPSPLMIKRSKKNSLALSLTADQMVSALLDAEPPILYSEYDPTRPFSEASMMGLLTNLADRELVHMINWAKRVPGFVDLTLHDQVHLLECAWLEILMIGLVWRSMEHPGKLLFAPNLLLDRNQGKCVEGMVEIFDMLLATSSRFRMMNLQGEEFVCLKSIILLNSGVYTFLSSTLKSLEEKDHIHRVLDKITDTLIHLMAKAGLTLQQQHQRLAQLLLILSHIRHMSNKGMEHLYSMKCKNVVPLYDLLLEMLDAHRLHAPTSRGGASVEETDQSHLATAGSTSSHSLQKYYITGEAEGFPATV

human ERβ = human ERβ (Homo sapiens, UniProt Q92731); conditions: for RBA (mean ± SD) ERβ: RBA of estradiol set to 100%, 2 nM [3H]-estradiol, 18–24 h at 0 °C
human ERβ, sequence (Q92731 whole entry): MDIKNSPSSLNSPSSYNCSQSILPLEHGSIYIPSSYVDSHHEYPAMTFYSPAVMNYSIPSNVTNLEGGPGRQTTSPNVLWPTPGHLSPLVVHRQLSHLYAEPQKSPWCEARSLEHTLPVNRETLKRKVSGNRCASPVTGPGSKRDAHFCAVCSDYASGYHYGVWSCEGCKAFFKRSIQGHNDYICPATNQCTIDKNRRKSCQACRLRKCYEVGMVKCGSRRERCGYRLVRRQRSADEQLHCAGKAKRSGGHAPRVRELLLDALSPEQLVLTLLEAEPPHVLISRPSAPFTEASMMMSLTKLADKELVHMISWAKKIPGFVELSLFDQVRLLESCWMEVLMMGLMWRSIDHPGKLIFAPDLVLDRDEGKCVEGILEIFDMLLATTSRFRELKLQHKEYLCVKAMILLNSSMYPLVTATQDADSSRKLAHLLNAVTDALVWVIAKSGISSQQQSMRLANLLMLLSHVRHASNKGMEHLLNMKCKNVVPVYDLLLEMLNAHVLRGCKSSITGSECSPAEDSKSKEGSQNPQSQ

[4] = system: E2-stimulated PgR and GREB1 gene expression in MCF-7 cells; assay: Inhibition of E2-stimulated PgR and GREB1 gene expression in MCF-7 cells; conditions: 3×10^−6 M component with 10^−9 M E2, 24 h

In the case of `C[C@]12CC[C@@H]3c4ccc(O)cc4CC[C@H]3[C@@H]1CC[C@@H]2O` [E2, estradiol, reference compound], the “PgR and GREB1 RNA level (gene stimulation)” value (shortened to “PgR and GREB1 RNA level”) [1] is reported as “markedly increased”.

In the case of `C#C[C@]1(O)CC[C@H]2[C@@H]3CCc4cc(O)ccc4[C@H]3CC[C@@]21C` [EE2, ethinyl estradiol], the “PI9 expression in HepG2 + ERα cells” value [2] is reported as “stimulated expression”.

For `C[C@]12CC[C@@H]3c4ccc(O)cc4C[C@@H](CCCCCCCCC[S+]([O-])CCCC(F)(F)C(F)(F)F)[C@H]3[C@@H]1CC[C@@H]2O` (some centres unmarked) [ICI 182,780, reference compound], the “effect of antiestrogen cotreatment on increases in Ki67 RNA expression” value ([3]; 10^−6 M ICI 182,780, 24 h) was “eliminated”.

For `O=C(/C=C/c1ccc(O)cc1)c1ccc(O)cc1O` [Iso-Liq, Iso-liquiritigenin, reference compound], the “PgR and GREB1 RNA level” value [1] was “markedly increased”, the “stimulation of MCF-7 cell proliferation” value (MCF-7 cells) was “stimulated cell proliferation quite strongly” and the “PI9 expression in HepG2 + ERα cells” value [2] was “stimulated expression”.

With `CC1(C)C=Cc2c(ccc3c2OC[C@@H](c2ccc(O)cc2O)C3)O1` [L1, Glabridin] the “RBA (mean ± SD) ERα” value (human ERα) was 0.075 ± 0.015%, the “PgR and GREB1 RNA level” value [1] was “little or no change in gene expression; also recorded: did not stimulate expression of PgR or GREB1” and the “stimulation of MCF-7 cell proliferation” value (MCF-7 cells) was “inactive in eliciting elevation of cell proliferation”. For the same compound, the “ERβ/ERα ratio of RBA” value (human ERβ) was 1.2, the “RBA (mean ± SD) ERβ” value (human ERβ) was 0.091 ± 0.001% and the “suppression of E2-elicited increase in Ki67 mRNA” value [3] was “not effective in suppressing”. The “Ki67 RNA expression (stimulation)” value [3] was “did not stimulate Ki67 gene expression”, the “block of E2-stimulated GREB1 expression” value [4] was “only partially” and the “block of E2-stimulated PgR expression” value [4] was “almost fully”.

For `COc1ccc(-c2coc3cc(O)ccc3c2=O)cc1O` [L2, Calycosin], the “RBA (mean ± SD) ERα” value (human ERα) was 0.010 ± 0.004%, the “PgR and GREB1 RNA level” value [1] was “effective in increasing PgR and GREB1 expression” and the “ERβ/ERα ratio of RBA” value (human ERβ) was 2.7. For the same compound, the “RBA (mean ± SD) ERβ” value (human ERβ) was 0.027 ± 0.004%.

`COc1ccc(C2COc3cc(O)ccc3C2)c(O)c1` (centres unmarked) [L4, Vestitol] was tested, and the “RBA (mean ± SD) ERα” value (human ERα) was 0.062 ± 0.008%, the “PgR and GREB1 RNA level” value [1] was “effective in increasing PgR and GREB1 expression” and the “potency in stimulating estrogen-regulated genes, fold less than E2” value ([1]; efficacy nearly equivalent to E2) was “ca. 10,000 fold”. The “stimulation of MCF-7 cell proliferation” value (MCF-7 cells) was “stimulated cell proliferation quite strongly”, the “ERβ/ERα ratio of RBA” value (human ERβ) was 0.6 and the “RBA (mean ± SD) ERβ” value (human ERβ) was 0.039 ± 0.011%.

`COc1c(CC=C(C)C)c(O)cc2c1C[C@H](c1ccc(O)cc1O)CO2` [L5, Glyasperin C] was tested, and the “RBA (mean ± SD) ERα” value (human ERα) was 0.010 ± 0.001%, the “PgR and GREB1 RNA level” value [1] was “little or no change in gene expression; also recorded: did not stimulate expression of PgR or GREB1” and the “stimulation of MCF-7 cell proliferation” value (MCF-7 cells) was “inactive in eliciting elevation of cell proliferation”. The “ERβ/ERα ratio of RBA” value (human ERβ) was 11.1, the “RBA (mean ± SD) ERβ” value (human ERβ) was 0.111 ± 0.004% and the “preference for ERβ over ERα” value (human ERβ; from RBA values) was “greater than 10 fold”. For the same compound, the “suppression of E2-elicited increase in Ki67 mRNA” value [3] was “not effective in suppressing”, the “Ki67 RNA expression (stimulation)” value [3] was “did not stimulate Ki67 gene expression” and the “block of E2-stimulated GREB1 expression” value [4] was “only partially”. For the same compound, the “block of E2-stimulated PgR expression” value [4] was “almost fully”.

For `COc1c(CC=C(C)C)c(O)cc2oc(=O)c(-c3ccc(O)cc3O)cc12` [L6, Glycycoumarin], the “RBA (mean ± SD) ERα” value (human ERα) was 0.017 ± 0.001%, the “PgR and GREB1 RNA level” value [1] was “effective in increasing PgR and GREB1 expression” and the “ERβ/ERα ratio of RBA” value (human ERβ) was 2.4. The “RBA (mean ± SD) ERβ” value (human ERβ) was 0.040 ± 0.001% and the “Ki67 RNA expression (stimulation)” value [3] was “all compounds except for L1, L5, L6 and L7 increased Ki67 RNA expression”.

In the case of `COc1c(CC=C(C)C)c(O)cc(O)c1-c1coc2cc(O)ccc2c1=O` [L7, Glicoricone], the “RBA (mean ± SD) ERα” value (human ERα) is reported as 0.008 ± 0.001%, the “PgR and GREB1 RNA level” value [1] is reported as “little or no change in gene expression; also recorded: did not stimulate expression of PgR or GREB1” and the “stimulation of MCF-7 cell proliferation” value (MCF-7 cells) is reported as “inactive in eliciting elevation of cell proliferation”. For the same compound, the “ERβ/ERα ratio of RBA” value (human ERβ) was 2.4, the “RBA (mean ± SD) ERβ” value (human ERβ) was 0.019 ± 0.004% and the “suppression of E2-elicited increase in Ki67 mRNA” value [3] was “partially suppressed”. The “Ki67 RNA expression (stimulation)” value [3] was “did not stimulate Ki67 expression”, the “block of E2-stimulated GREB1 expression” value [4] was “only partially; also recorded: most effective antagonist of GREB1 stimulation by E2” and the “block of E2-stimulated PgR expression” value [4] was “almost fully”.

For `O=C1C[C@@H](c2ccc(O)cc2)Oc2cc(O)ccc21` [Liq, Liquiritigenin, reference compound], the “RBA (mean ± SD) ERα” value (human ERα) was <0.001%, the “PgR and GREB1 RNA level” value [1] was “markedly increased” and the “stimulation of MCF-7 cell proliferation” value (MCF-7 cells) was “stimulated cell proliferation quite strongly”. For the same compound, the “PI9 expression in HepG2 + ERα cells” value [2] was “stimulated expression”.
